In patent US20070244076A1, “Site and Rate Selective Prodrug Formulations of D609 with Antioxidant and Anticancer Activity” (priority 2003, published 2007):
Where “and” joins values, the source holds several entries; their conditions need not be identical. Equal values may be shown once. Marks after values point to notes of the source that are not given here.

Experiments:
[1] = tested on: Porcine liver esterase (PLE); assay: Esterase-catalyzed hydrolysis of D609 prodrugs; format: in vitro ADME
Method: FIG. 18A, FIG. 18B, FIG. 18C: Esterase-catalyzed hydrolysis of D609 prodrugs. Prodrugs (300 μM in 15% DMSO/PBS, pH 7.4), 1 (FIG. 18A), 2 (FIG. 18B) and 3 (FIG. 18C), were incubated at 37° C. in the presence of 0.1 unit/ml PLE. […] The data are presented as the mean±SEM of three independent assays.
To determine the hydrolytic property of D609 prodrugs 1, 2, and 3 (300 μM in 15% DMSO/PBS, pH7.4), these prodrugs were incubated with 0.1 unit/ml PLE at 37° C. After various times during incubation, the rate of hydrolysis of these D609 prodrugs was monitored by HPLC analysis. […] The concentration of D609 (μM) was calculated based on a linear D609-DTNB standard curve. The pseudo-first-order plots for the hydrolysis of these prodrugs were constructed from the logarithm of remaining ester versus time (FIG. 18). The end points of the reaction (150 min) were defined as when the hydrolysis of these prodrugs was over 99% complete and the release of D609 reached plateau. The pseudo-first-order rate constant (Kobs) and T1/2 (=0.693/Kobs) were calculated based on the slope of the linear portion of the curve for each of these prodrugs and are presented in Table 1 (Gilmer et al., 2002).

[2] = tested on: ceramide levels in U937 cells; assay: Ceramide profile in U937 cells by ESI/MS/MS; format: cell-based, Human; conditions: for increase in the level of total ceramide compared to vehicle-treated cells: 177 μM; for C14-Cer / C16-Cer / C18-Cer / C20-Cer / C24-Cer / C24:1-Cer / Total-Cer / dhC16-Cer: 177 µM, 4 h
Method: ESI/MS/MS analysis of ceramide was performed on a Thermo Finnigan TSQ 7000 triple quadruple mass spectrometer, operating in a multiple reaction monitoring (MRM) positive ionization mode. U937 cells (4×10^6/sample) were washed twice with PBS after they were harvested from cultures. […] An aliquot of the lipid extracts was taken for inorganic phosphate determination and the remainder was evaporated to dryness and reconstituted in 100 μL of methanol. The reconstituted samples were injected on the Surveyor/TSQ 7000 LC/MS system and gradient was eluted from the BDS Hypersil C8, 150×3.2 mm, 3 μm particle size column, with 1.0 mM methanolic ammonium formate/2 mM aqueous ammonium formate mobile phase system. Peaks for the target analytes and internal standards were collected and processed using the Xcalibur software system. Various species of ceramide were quantified using N-palmitoyl-D-erythro-sphingosine, C13 base (C13 ceramide) and N-heptadecanoyl-D-erythro-sphingosine, C18 base (C18 ceramide) as internal calibration standards. Calibration curves were constructed by plotting peak area ratios of synthetic standards corresponding to each target analyte with respect to the appropriate internal standard. The target analyte peak areas from the samples were similarly normalized to their respective internal standard then compared with the calibration curves using a linear regression model. The results are expressed as pmole ceramide/nmole lipid phosphate (Pi).

[3] = tested on: various tumor cells; assay: IR-induced apoptosis of tumor cells; format: cell-based
[4] = target: phospholipase C (Type XI from B. cereus) (Bacillus cereus, UniProt P09598); format: biochemical; conditions: 2 hrs at 37° C., pNPP 40 mM
Method: In this study, p-nitrophenyl-phosphorylcholine (pNPP, 40 mM) was incubated with 2 U/ml phospholipase C (Type XI from B. cereus) in the presence or absence of various concentrations of inhibitors for 2 hrs at 37° C. The amount of the cleaved substrate pNPP was quantified by determination of the optical density at 410 nm using an ELISA reader. The results are expressed as percent of vehicle control and presented as means±SEM (n=3) (FIG. 9A). NBD-C6-ceramide and PC were incubated with U937 cell lysates containing 50 μg protein in the presence or absence of various concentrations of inhibitors for 30 min at 30° C. The formation of NBD-C6-sphingomyelin as analyzed by TLC and quantified by determination of the fluorescent intensity of NBD-C6-sphingomyelin using a phosphorimager. The results are expressed as percent of vehicle control (FIG. 9B). U937 cells were incubated with different concentrations of inhibitors for 48 hours.

[5] = tested on: ceramide and DAG levels in U937 cells; assay: Ceramide and DAG levels in U937 cells by DAG kinase assay; format: cell-based, Human; conditions: 2 hrs
Method: To validate if inhibition of SMS may mediate D609-induced tumor cell death, the cellular level of SMS activity in U937 cells treated with vehicle or D609 were studied. […] NBD-C6-ceramide and PC were incubated with the cell lysates containing 50 μg proteins for 30 min at 30° C. The formation of NBD-C6-sphingomyelin was analyzed by TLC and quantified by determination of the fluorescent intensity of NBD-C6-sphingomyelin using a phosphoimager. The results, shown in FIGS. 10B-10D, are expressed as percent of the control cultures with vehicle and presented as means±SEM (n=3). […] The levels of ceramide (FIG. 10B) and DAG (FIG. 10C) were analyzed by the DAG kinase assay, normalized to the levels of cellular phospholipid and expressed as pmole/nmole phophate (pi) or the ratio of ceramide and DAG (FIG. 10D). The results represent means±SEM (n=3).

[6] = tested on: Mouse splenic lymphocytes; assay: IFNγ production of ConA-stimulated lymphocytes, ELISA; format: cell-based
Method: Studies were conducted to determine whether D609 enhances mouse splenic lymphocyte mitogenic responses and IFNγ production. Mouse splenic lymphocytes at 2.5×10^6/ml were stimulated with LPS or ConA in the presence or absence of D609. The cell proliferation was measure by 3H-thymidine incorporation after the cells were cultured with LPS (FIG. 8A) or with ConA (FIG. 8B). […] In addition, the supernatants of ConA-stimulated lymphocyte cultures were harvested at various times and measured for IFNγ production by ELISA (FIG. 8C).

[7] = tested on: A20 lymphoma; conditions: 50 mg/kg i.v., alone or with 6.0 Gy irradiation
Method: A20 lymphoma was induced in normal BALB/c male mice by the tail vein injection of 5×10^5 cultured A20 cells. Two days later, the mice were assigned to groups of 10 mice each and received i.v. 1) saline, 2) 50 mg/kg D609, 3) saline plus 6.0 Gy irradiation or 4) D609 plus irradiation. Total body irradiation was given 10 min after D609 injection. Survival of each mouse was then followed by daily monitoring and weighing (5×/week).

[8] = tested on: A20 cells; assay: MTT cell viability and growth, A20 cells
Method: The cell viability was analyzed by MTT assay after A20 cells were cultured with vehicle or different concentrations of D609 for 48 hrs. […] A20 cells were untreated (Control), irradiated (IR 4 Gy), incubated with D609 alone, or treated with both D609 and IR. The cell viability and/or proliferation were measured by MTT assay at different times after the cells were placed into well of 96-well plate (2×10^4/0.2 ml/well). The results are expressed as means±SEM (n=3) (FIG. 13B).

[9] = 300 μM, 0.1 unit/ml PLE, 37° C., pH 7.4

phospholipase C (Type XI from B. cereus), sequence (P09598 39-283 limits assumed): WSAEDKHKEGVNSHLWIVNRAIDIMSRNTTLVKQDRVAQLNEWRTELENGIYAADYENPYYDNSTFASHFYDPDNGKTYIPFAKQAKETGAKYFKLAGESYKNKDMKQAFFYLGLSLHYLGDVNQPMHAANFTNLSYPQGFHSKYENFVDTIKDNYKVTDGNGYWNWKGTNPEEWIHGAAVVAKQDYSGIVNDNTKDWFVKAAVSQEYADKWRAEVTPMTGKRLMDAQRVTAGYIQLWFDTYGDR

What does the source list for `CCCC(=O)OCSC(=S)OC1CC2CC1C1CCCC21` (stereo not drawn) [Prodrug 2, S-methyleneoxybutyryl D609]?
T1/2 [1, 9]: 10.61 min; kobs [1, 9]: 0.06532 min⁻¹; % D609 (molar recovery of D609) ([1]; complete hydrolysis by esterase): 93%; increase in the level of total ceramide compared to vehicle-treated cells [2]: 1.84 fold; C14-Cer [2]: 0.054^a,b pmole ceramide/nmole lipid Pi; C16-Cer [2]: 1.713^a pmole ceramide/nmole lipid Pi; C18-Cer [2]: 0.262^a pmole ceramide/nmole lipid Pi; C20-Cer [2]: 0.031^a pmole ceramide/nmole lipid Pi; C24-Cer [2]: 0.482^a pmole ceramide/nmole lipid Pi; C24:1-Cer [2]: 0.863^a,b pmole ceramide/nmole lipid Pi; Total-Cer [2]: 4.358^a,b pmole ceramide/nmole lipid Pi; dhC16-Cer [2]: 0.951^a,b pmole ceramide/nmole lipid Pi

How did the “protection of tumor cells from IR-induced apoptosis” value [3] turn out when `S=C([S-])OC1CC2CC1C1CCCC21.[K+]` (stereo not drawn) [Prodrug D609, Tricyclodecan-9-yl-xanthogenate] was run?
The value was “failed to protect them from IR-induced apoptosis”.

And the “inhibition of PC-PLC activity” value [4]?
The value was “dose-dependently inhibited”.

And the “level of DAG” value [5]?
The value was “decrease in that of DAG”.

And the level of ceramide [5]?
The level of ceramide was “increase in the level of ceramide”.

What about the “ratio between ceramide and DAG” value [5] of the same compound?
Its value is “dramatically elevated”.

What about the “production of interferon-γ (IFNγ)” value [6] of the same compound?
The value was “significantly augmented”.

And the therapeutic response [7]?
Its therapeutic response is “no significant therapeutic response”.

What about the “increase in the level of total ceramide compared to vehicle-treated cells” value [2] of the same compound?
Its value is “about 1.61 fold”.

What about the C14-Cer [2] of the same compound?
The C14-Cer was 0.038^a pmole ceramide/nmole lipid Pi.

What about the C16-Cer [2] of the same compound?
The C16-Cer was 1.612^a pmole ceramide/nmole lipid Pi.

What about the C18-Cer [2] of the same compound?
The C18-Cer was 0.213^a pmole ceramide/nmole lipid Pi.

What about the C20-Cer [2] of the same compound?
The C20-Cer was 0.036^a pmole ceramide/nmole lipid Pi.

What about the C24-Cer [2] of the same compound?
The C24-Cer was 0.416 pmole ceramide/nmole lipid Pi.

What about the “C24:1-Cer” value [2] of the same compound?
Its value is 0.669^a pmole ceramide/nmole lipid Pi.

And the Total-Cer [2]?
The Total-Cer was 3.816^a pmole ceramide/nmole lipid Pi.

What about the dhC16-Cer [2] of the same compound?
Its dhC16-Cer is 0.832^a pmole ceramide/nmole lipid Pi.

And the LD50 ([8]; 48 hrs)?
The LD50 was “about 106 μM and ~28.2 μg/ml”.

And the “response of A20 cells to IR” value ([8]; IR 4 Gy)?
Its value is “enhanced their response to IR”.
